pIC50: −log10 of the molar value.
Columns and labels:
Human recombinant FAP = molecular target: T1, Human recombinant FAP (Homo sapiens, UniProt Q12884); experiment: FRET-based FAP protease activity assay; assay type: biochemical; parameters: purchased R&D systems 3715-SE; conditions: pIC50 Category (Activity), FRET substrate, 37° C.
T1 sequence (Q12884 1-760): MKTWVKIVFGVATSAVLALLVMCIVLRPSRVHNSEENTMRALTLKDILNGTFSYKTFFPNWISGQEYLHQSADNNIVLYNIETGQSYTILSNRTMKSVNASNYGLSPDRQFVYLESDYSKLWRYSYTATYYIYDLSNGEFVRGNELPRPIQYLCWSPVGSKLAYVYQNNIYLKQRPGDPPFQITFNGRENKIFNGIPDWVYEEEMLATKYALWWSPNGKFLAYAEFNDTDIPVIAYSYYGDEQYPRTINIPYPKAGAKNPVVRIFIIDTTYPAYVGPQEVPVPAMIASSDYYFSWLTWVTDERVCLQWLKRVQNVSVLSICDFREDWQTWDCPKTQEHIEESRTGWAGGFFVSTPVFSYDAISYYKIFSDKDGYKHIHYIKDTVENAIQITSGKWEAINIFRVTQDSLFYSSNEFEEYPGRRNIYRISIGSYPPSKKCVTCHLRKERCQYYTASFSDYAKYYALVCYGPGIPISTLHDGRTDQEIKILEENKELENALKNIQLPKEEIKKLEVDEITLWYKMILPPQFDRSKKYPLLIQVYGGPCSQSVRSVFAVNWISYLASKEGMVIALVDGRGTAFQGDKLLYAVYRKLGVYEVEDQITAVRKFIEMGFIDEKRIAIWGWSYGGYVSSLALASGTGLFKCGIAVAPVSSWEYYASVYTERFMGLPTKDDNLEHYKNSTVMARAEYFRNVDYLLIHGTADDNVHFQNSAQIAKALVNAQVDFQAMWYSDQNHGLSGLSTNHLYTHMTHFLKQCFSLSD

[1] = molecular target: T2, FAP-expressing human WI-38 fibroblasts (Homo sapiens, UniProt Q12884); experiment: Competitive FACS binding assay; conditions: pIC50 Category (FACS), competition with 3 nM Cy5-labeled compound, 4° C., 1 hour
T2 construct: FAP-expressing human WI-38 fibroblasts (ECACC) were cultured in EMEM; host or cells: WI-38 human fibroblasts
T2 sequence (Q12884 1-760): T1 sequence (Q12884 1-760)
Procedure: Cells were analyzed in an Attune NxT flow cytometer. […]

Row | SMILES | pIC50 (Human recombinant FAP) | pIC50 [1]
1 | CCCCCC(=O)N[C@H]1CSCc2cc(CSCCNC(=O)CN3CCN(CC(=O)O)CCN(CC(=O)O)CC3)cc(c2)CSC[C@@H](C(=O)O)NC(=O)[C@H](Cc2ccccc2)NC(=O)[C@H](CCC(N)=O)NC(=O)[C@H]([C@@H](C)O)NC(=O)[C@@H]2CCCN2C(=O)[C@@H]2CCCN2C1=O [3BP-4310, Hex-[Cys-(tMeBn(NOTA-AET))-Pro-Pro-Thr-Gln-Phe-Cys]-OH] | > 8.00 | > 8.00
2 | CCCCCC(=O)N[C@H]1CSCc2cc(CSCCNC(=O)c3ccc(NN)nc3)cc(c2)CSC[C@@H](C(=O)O)NC(=O)[C@H](Cc2ccccc2)NC(=O)[C@H](CCC(N)=O)NC(=O)[C@H]([C@@H](C)O)NC(=O)[C@@H]2CCCN2C(=O)[C@@H]2CCCN2C1=O [3BP-4342, Hex-[Cys-(tMeBn(H-HYNIC-AET))-Pro-Pro-Thr-Gln-Phe-Cys]-OH] | > 8.00 | 7.10 to 8.00
3 | CCCCCC(=O)N[C@H]1CSCc2cc(CSCCNC(=O)CN3CCN4CCN(CC(=O)O)CCN(CC3)CC(=O)[O][Zn][O]C(=O)C4)cc(c2)CSC[C@@H](C(=O)O)NC(=O)[C@H](Cc2ccccc2)NC(=O)[C@H](CCC(N)=O)NC(=O)[C@H]([C@@H](C)O)NC(=O)[C@@H]2CCCN2C(=O)[C@@H]2CCCN2C1 [3BP-4343, Zink-Complex of Hex-[Cys(tMeBn(DOTA-AET))-Pro-Pro-Thr-Gln-Phe-Cys]-OH] | > 8.00 | > 8.00
4 | CCCCCC(=O)N[C@H]1CSCc2cc(CSCCNC(=O)CCC(=O)NCCCOCCOCCOCCCNC(=O)CN3CCN(CC(=O)O)CCN(CC(=O)O)CC3)cc(c2)CSC[C@@H](C(=O)O)NC(=O)[C@H](Cc2ccccc2)NC(=O)[C@H](CCC(N)=O)NC(=O)[C@H]([C@@H](C)O)NC(=O)[C@@H]2CCCN2C(=O)[C@@H]2CCCN2C1=O [3BP-4344, Hex-[Cys-(tMeBn(NOTA-Ttds-AET))-Pro-Pro-Thr-Gln-Phe-Cys]-OH] | > 8.00 | > 8.00
5 | CCCCCC(=O)N[C@H]1CSCc2cc(CSCCNC(=O)CCC(=O)NCCCOCCOCCOCCCNC(=O)CN(CCN(CCN(CC(=O)O)CC(=O)O)CC(=O)O)CC(=O)O)cc(c2)CSC[C@@H](C(=O)O)NC(=O)[C@H](Cc2ccccc2)NC(=O)[C@H](CCC(N)=O)NC(=O)[C@H]([C@@H](C)O)NC(=O)[C@@H]2CCCN2C(=O)[C@@H]2CCCN2C1=O [3BP-4352, Hex-[Cys-(tMeBn(DTPA2-Ttds-AET))-Pro-Pro-Thr-Gln-Phe-Cys]-OH] | 7.10 to 8.00 | 6.10 to 7.00
6 | CCCCCC(=O)N[C@H]1CSCc2cc(CSCCNC(=O)CCOCCOCCOCCOCCOCCOCCNC(=O)CN(CCN(CCN(CC(=O)O)CC(=O)O)CC(=O)O)CC(=O)O)cc(c2)CSC[C@@H](C(=O)O)NC(=O)[C@H](Cc2ccccc2)NC(=O)[C@H](CCC(N)=O)NC(=O)[C@H]([C@@H](C)O)NC(=O)[C@@H]2CCCN2C(=O)[C@@H]2CCCN2C1=O [3BP-4353, Hex-[Cys-(tMeBn(DTPA2-PEG6-AET))-Pro-Pro-Thr-Gln-Phe-Cys]-OH] | 7.10 to 8.00 | 7.10 to 8.00
7 | CCCCCC(=O)N[C@H]1CSCc2cc(CSCCNC(=O)CCCC(=O)Nc3ccc(C[C@H](CN(CCN(CC(=O)O)CC(=O)O)CC(=O)O)N(CC(=O)O)CC(=O)O)cc3)cc(c2)CSC[C@@H](C(=O)O)NC(=O)[C@H](Cc2ccccc2)NC(=O)[C@H](CCC(N)=O)NC(=O)[C@H]([C@@H](C)O)NC(=O)[C@@H]2CCCN2C(=O)[C@@H]2CCCN2C1=O [3BP-4366, Hex-[Cys-(tMeBn(DTPABzl-Glutar-AET))-Pro-Pro-Thr-Gln-Phe-Cys]-OH] | 6.10 to 7.00 | 6.10 to 7.00
8 | CCCCCC(=O)N[C@H]1CSCc2cc(CSCCNC(=O)CN3CCN4CCN5CCN(CC3)CC(=O)[O][Lu]([O]C(=O)C4)[O]C(=O)C5)cc(c2)CSC[C@@H](C(=O)N[C@@H](CC(=O)O)C(=O)NCCCC(=O)NC(CCCNC(=N)N)C(=O)NCCCOCCOCCOCCCNC(=O)CCC(=O)NC(CCCCNC(=O)c2ccc(-c3c4ccc(=N)c(S(=O)(=O)O)c-4oc4c(S(=O)(=O)O)c(N)ccc34)c(C(=O)O)c2)C(N)=O)NC[C@H](Cc2ccccc2)NC(=O)[C@H](CCC(N)=O)NC(=O)C([C@@H](C)O)NC(=O)[C@@H]2CCCN2C(=O)[C@@H]2CCCC2C1=O (stereo partly drawn) [3BP-4372, Hex-[Cys(tMeBn(LuDOTA-AET))-Pro-Pro-Thr-Gln-Phe-Cys]-Asp-Gab-Arg-Ttds-Lys(AF488)-NH2] | > 8.00 | > 8.00
9 | CCCCCC(=O)N[C@H]1CSCc2cc(CSCCNC(=O)CN3CCN4CCN5CCN(CC3)CC(=O)[O][Lu]([O]C(=O)C4)[O]C(=O)C5)cc(c2)CSC[C@@H](C(=O)N[C@@H](CC(=O)O)C(=O)NCCCC(=O)N[C@@H](CCCNC(=N)N)C(=O)NCCCOCCOCCOCCCNC(=O)CCC(=O)NCCCOCCOCCOCCCNC(=O)CCC(=O)NCCCOCCOCCOCCCNC(=O)CCC(=O)N[C@@H](CCCCNC(=O)c2ccc(-c3c4ccc(=N)c(S(=O)(=O)O)c-4oc4c(S(=O)(=O)O)c(N)ccc34)c(C(=O)O)c2)C(N)=O)NC[C@H](Cc2ccccc2)NC(=O)[C@H](CCC(N)=O)NC(=O)C([C@@H](C)O)NC(=O)[C@@H]2CCCN2C(=O)[C@@H]2CCCC2C1=O (stereo partly drawn) [3BP-4373, Hex-[Cys(tMeBn(LuDOTA-AET))-Pro-Pro-Thr-Gln-Phe-Cys]-Asp-Gab-Arg-Ttds-Ttds-Ttds-Lys(AF488)-NH2] | > 8.00 | 7.10 to 8.00
10 | CCCCCC(=O)N[C@H]1CSCc2cc(CSCCNC(=O)CCC(=O)NCCCOCCOCCOCCCNC(=O)c3ccc(NN)nc3)cc(c2)CSC[C@@H](C(=O)O)NC(=O)[C@H](Cc2ccccc2)NC(=O)[C@H](CCC(N)=O)NC(=O)[C@H]([C@@H](C)O)NC(=O)[C@@H]2CCCN2C(=O)[C@@H]2CCCN2C1=O [3BP-4376, Hex-[Cys-(tMeBn(H-HYNIC-Ttds-AET))-Pro-Pro-Thr-Gln-Phe-Cys]-OH] | > 8.00 | > 8.00
11 | CCCCCC(=O)N[C@H]1CSCc2cc(CSCCNC(=O)CN3CCN(CC(=O)O)CCN(CC(=O)O)Cc4cccc(n4)C3)cc(c2)CSC[C@@H](C(=O)O)NC(=O)[C@H](Cc2ccccc2)NC(=O)[C@H](CCC(N)=O)NC(=O)[C@H]([C@@H](C)O)NC(=O)[C@@H]2CCCN2C(=O)[C@@H]2CCCN2C1=O [3BP-4379, Hex-[Cys-(tMeBn(PCTA-AET))-Pro-Pro-Thr-Gln-Phe-Cys]-OH] | > 8.00 | > 8.00
12 | CCCCCC(=O)N[C@H]1CSCc2cc(CSCCNC(=O)CCP(=O)(O)CN3CCN(CP(=O)(O)CO)CCN(CP(=O)(O)CO)CC3)cc(c2)CSC[C@@H](C(=O)O)NC(=O)[C@H](Cc2ccccc2)NC(=O)[C@H](CCC(N)=O)NC(=O)[C@H]([C@@H](C)O)NC(=O)[C@@H]2CCCN2C(=O)[C@@H]2CCCN2C1=O [3BP-4380, Hex-[Cys-(tMeBn(NOPO-AET))-Pro-Pro-Thr-Gln-Phe-Cys]-OH] | > 8.00 | > 8.00
13 | CCCCCC(=O)N[C@H]1CSCc2cc(CSCCNC(=O)CCc3ccc(O)c(CN(CCN(CC(=O)O)Cc4cc(CCC(=O)O)ccc4O)CC(=O)O)c3)cc(c2)CSC[C@@H](C(=O)O)NC(=O)[C@H](Cc2ccccc2)NC(=O)[C@H](CCC(N)=O)NC(=O)[C@H]([C@@H](C)O)NC(=O)[C@@H]2CCCN2C(=O)[C@@H]2CCCN2C1=O [3BP-4381, Hex-[Cys-(tMeBn(HBED-AET))-Pro-Pro-Thr-Gln-Phe-Cys]-OH] | 7.10 to 8.00 | 7.10 to 8.00
14 | CCCCCC(=O)N[C@H]1CSCc2cc(CSCCNC(=O)CCCCC3(N(C)CC(=O)O)CN(CC(=O)O)CCN(CC(=O)O)C3)cc(c2)CSC[C@@H](C(=O)O)NC(=O)[C@H](Cc2ccccc2)NC(=O)[C@H](CCC(N)=O)NC(=O)[C@H]([C@@H](C)O)NC(=O)[C@@H]2CCCN2C(=O)[C@@H]2CCCN2C1=O [3BP-4382, Hex-[Cys-(tMeBn(DATA-AET))-Pro-Pro-Thr-Gln-Phe-Cys]-OH] | 7.10 to 8.00 | 7.10 to 8.00
15 | CCCCCC(=O)N[C@H]1CSCc2cc(CSCCNC(=O)CCC(=O)NCCCOCCOCCOCCCNC(=O)CCP(=O)(O)CN3CCN(CP(=O)(O)CO)CCN(CP(=O)(O)CO)CC3)cc(c2)CSC[C@@H](C(=O)O)NC(=O)[C@H](Cc2ccccc2)NC(=O)[C@H](CCC(N)=O)NC(=O)[C@H]([C@@H](C)O)NC(=O)[C@@H]2CCCN2C(=O)[C@@H]2CCCN2C1=O [3BP-4385, Hex-[Cys(tMeBn(NOPO-Ttds-AET))-Pro-Pro-Thr-Gln-Phe-Cys]-OH] | 7.10 to 8.00 | 7.10 to 8.00
16 | CCCC(NC(=O)CCC(=O)NCCCOCCOCCOCCCNC(=O)CN1CCN(CC(=O)O)CCN(CC(=O)O)CCN(CC(=O)O)CC1)C(=O)N[C@H]1CSCc2cc(CSCCNC(=O)CN3CCN(CC(=O)O)CCN(CC(=O)O)CCN(CC(=O)O)CC3)cc(c2)CSC[C@@H](C(=O)O)NC(=O)[C@H](Cc2ccccc2)NC(=O)[C@H](CCC(N)=O)NC(=O)[C@H]([C@@H](C)O)NC(=O)[C@@H]2CCCN2C(=O)[C@@H]2CCCN2C1=O (stereo partly drawn) [3BP-4386, DOTA-Ttds-Nle-[Cys(tMeBn(DOTA-AET))-Pro-Pro-Thr-Gln-Phe-Cys]-OH] | 7.10 to 8.00 | 7.10 to 8.00
